Source: ChEMBL document CHEMBL1201862, “PubChem BioAssay data set” (2004)
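All cell lines were grown in 96-well plates and treated with compound for 48 hours. GI50 = concentration required for 50% inhibition of growth.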 Activity calls are given as the source filed them. Rule as the data show it: active = GI50 up to about 1.1 µM and inactive = higher.

How the values were obtained:
Test in all cases: inhibition of tumour cell growth, NCI panel, 48 h
[1] = system: OVCAR-3
[2] = system: HCC 2998
[3] = system: MDA-MB-231
[4] = system: OVCAR-8
[5] = system: SK-OV-3
[6] = system: SF-295
[7] = system: UACC-257
[8] = system: A549
[9] = system: Hs-578T
[10] = system: NCI-H522
[11] = system: LOX IMVI
[12] = system: ACHN
[13] = system: HT-29
[14] = system: SNB-19
[15] = system: DU-145
[16] = system: COLO 205
[17] = system: EKVX
[18] = system: HL-60
[19] = system: UACC-62
[20] = system: HOP-92
[21] = system: RXF 393
[22] = system: CCRF-CEM
[23] = system: SK-MEL-28
[24] = system: UO-31
[25] = system: SK-MEL-2
[26] = system: NCI/ADR-RES
[27] = system: Malme-3M
[28] = system: A498
[29] = system: SNB-75
[30] = system: HOP-62
[31] = system: BT-549
[32] = system: KM12
[33] = system: HCT-116
[34] = system: PC-3
[35] = system: 786-0
[36] = system: OVCAR-4
[37] = system: M14
[38] = system: NCI-H23
[39] = system: HCT-15
[40] = system: U-251
[41] = system: SW-620
[42] = system: K562
[43] = system: SK-MEL-5
[44] = system: CAKI-1
[45] = system: SN12C
[46] = system: MDA-N
[47] = system: MOLT-4
[48] = system: SR
[49] = system: SF-539
[50] = system: RPMI-8226
[51] = system: MDA-MB-435
[52] = system: IGROV-1
[53] = system: NCI-H460
[54] = system: MCF7
[55] = system: TK-10
[56] = system: NCI-H226
[57] = system: SF-268
[58] = system: OVCAR-5
[59] = system: T47D
[60] = system: DLD-1
[61] = system: DMS-273
[62] = system: DMS-114
[63] = system: SNB-78
[64] = system: LXFL 529

`CC(C)C[C@H](NC(=O)[C@@H](Cc1cccc2ccccc12)NC(=O)N1CCOCC1)B(O)O` was tested, and the GI50 [1] was 2.61 µM (inactive), the GI50 [2] was 2.01 µM (inactive) and the GI50 [3] was 4.48 µM (inactive). For the same compound, the GI50 [4] was 16.7 µM (inactive), the GI50 [5] was 6.85 µM (inactive) and the GI50 [6] was 14 µM (inactive). The GI50 [7] was 2.18 µM (inactive), the GI50 [8] was 19.8 µM (inactive) and the GI50 [9] was 3.84 µM (inactive). For the same compound, the GI50 [10] was 1.92 µM (inactive), the GI50 [11] was 2.36 µM (inactive) and the GI50 [12] was 9.25 µM (inactive). For the same compound, the GI50 [13] was 2.64 µM (inactive), the GI50 [14] was 9.77 µM (inactive) and the GI50 [15] was 10.9 µM (inactive). For the same compound, the GI50 [16] was 16.4 µM (inactive), the GI50 [17] was 14.3 µM (inactive) and the GI50 [18] was 2.77 µM (inactive). For the same compound, the GI50 [19] was 4.02 µM (inactive), the GI50 [20] was 2.67 µM (inactive) and the GI50 [21] was 2.4 µM (inactive). For the same compound, the GI50 [22] was 1.57 µM (inactive), the GI50 [23] was 2.14 µM (inactive) and the GI50 [24] was 19.5 µM (inactive). For the same compound, the GI50 [25] was 3.33 µM (inactive), the GI50 [26] was 51.4 µM (inactive) and the GI50 [27] was 1.58 µM (inactive). The GI50 [28] was 4.05 µM (inactive), the GI50 [29] was 1.18 µM (inactive) and the GI50 [30] was 16 µM (inactive). The GI50 [31] was 3.99 µM (inactive), the GI50 [32] was 5.13 µM (inactive) and the GI50 [33] was 2.24 µM (inactive). For the same compound, the GI50 [34] was 7.82 µM (inactive), the GI50 [35] was 4.79 µM (inactive) and the GI50 [36] was 4.72 µM (inactive). For the same compound, the GI50 [37] was 3.11 µM (inactive), the GI50 [38] was 2.9 µM (inactive) and the GI50 [39] was 21.9 µM. The GI50 [40] was 4.57 µM (inactive), the GI50 [41] was 3.14 µM (inactive) and the GI50 [42] was 3.55 µM (inactive). For the same compound, the GI50 [43] was 3.13 µM (inactive), the GI50 [44] was 11.1 µM (inactive) and the GI50 [45] was 5.55 µM (inactive). For the same compound, the GI50 [46] was 2.59 µM (inactive), the GI50 [47] was 3.2 µM (inactive) and the GI50 [48] was 3.13 µM (inactive). For the same compound, the GI50 [49] was 2.04 µM (inactive), the GI50 [50] was 2.52 µM (inactive) and the GI50 [51] was 1.92 µM (inactive). For the same compound, the GI50 [52] was 5.06 µM (inactive), the GI50 [53] was 18.5 µM (inactive) and the GI50 [54] was 5.43 µM (inactive). The GI50 [55] was 6.47 µM (inactive), the GI50 [56] was 1.61 µM (inactive) and the GI50 [57] was 2.96 µM (inactive). For the same compound, the GI50 [58] was 3.19 µM (inactive) and the GI50 [59] was 2.45 µM (inactive).
For `O=C(O)CCSC(=O)Nc1ccc([N+](=O)[O-])cc1`, the GI50 [1] was > 100 µM (inactive), the GI50 [2] was > 100 µM (inactive) and the GI50 [4] was > 100 µM (inactive). For the same compound, the GI50 [6] was > 100 µM (inactive), the GI50 [7] was > 100 µM (inactive) and the GI50 [8] was > 100 µM (inactive). The GI50 [11] was > 100 µM (inactive), the GI50 [12] was > 100 µM (inactive) and the GI50 [13] was > 100 µM (inactive). The GI50 [14] was > 100 µM (inactive), the GI50 [60] was > 100 µM (inactive) and the GI50 [16] was > 100 µM (inactive). The GI50 [17] was > 100 µM (inactive), the GI50 [18] was > 100 µM (inactive) and the GI50 [21] was > 100 µM (inactive). For the same compound, the GI50 [22] was > 100 µM (inactive), the GI50 [23] was > 100 µM (inactive) and the GI50 [24] was > 100 µM (inactive). The GI50 [25] was > 100 µM (inactive), the GI50 [28] was > 100 µM (inactive) and the GI50 [29] was 19.4 µM (inactive). For the same compound, the GI50 [30] was > 100 µM (inactive), the GI50 [32] was > 100 µM (inactive) and the GI50 [33] was > 100 µM (inactive). The GI50 [35] was > 100 µM (inactive), the GI50 [36] was > 100 µM (inactive) and the GI50 [37] was > 100 µM (inactive). For the same compound, the GI50 [38] was > 100 µM (inactive), the GI50 [39] was greater than 100 µM and the GI50 [40] was > 100 µM (inactive). For the same compound, the GI50 [41] was > 100 µM (inactive), the GI50 [42] was > 100 µM (inactive) and the GI50 [44] was > 100 µM (inactive). For the same compound, the GI50 [45] was > 100 µM (inactive), the GI50 [47] was > 100 µM (inactive) and the GI50 [48] was > 100 µM (inactive). For the same compound, the GI50 [49] was > 100 µM (inactive), the GI50 [61] was > 100 µM (inactive) and the GI50 [62] was > 100 µM (inactive). For the same compound, the GI50 [63] was > 100 µM (inactive), the GI50 [50] was > 100 µM (inactive) and the GI50 [52] was 72.8 µM (inactive). For the same compound, the GI50 [53] was > 100 µM (inactive), the GI50 [55] was > 100 µM (inactive) and the GI50 [64] was > 100 µM (inactive). For the same compound, the GI50 [57] was > 100 µM (inactive).
For `CCCCCNC(=O)c1cc2cc(CCl)ccc2oc1=O`, the GI50 [1] was 8.02 µM (inactive), the GI50 [2] was 1.77 µM (inactive) and the GI50 [3] was 1.97 µM (inactive). For the same compound, the GI50 [4] was 35.7 µM (inactive), the GI50 [5] was 5.19 µM (inactive) and the GI50 [6] was 6.56 µM (inactive). The GI50 [7] was 2.04 µM (inactive), the GI50 [8] was 4.65 µM (inactive) and the GI50 [9] was 6.37 µM (inactive). For the same compound, the GI50 [10] was 3.24 µM (inactive), the GI50 [11] was 17.3 µM (inactive) and the GI50 [12] was 2.01 µM (inactive). The GI50 [13] was 2.42 µM (inactive), the GI50 [14] was 15.9 µM (inactive) and the GI50 [15] was 2.26 µM (inactive). The GI50 [16] was 1.33 µM (inactive), the GI50 [17] was 4.41 µM (inactive) and the GI50 [18] was 1.9 µM (inactive). The GI50 [19] was 2.45 µM (inactive), the GI50 [20] was 1.95 µM (inactive) and the GI50 [21] was 0.798 µM (active). The GI50 [22] was > 100 µM (inactive), the GI50 [23] was 9.42 µM (inactive) and the GI50 [24] was 1.63 µM (inactive). For the same compound, the GI50 [25] was 3.1 µM (inactive), the GI50 [26] was 16.4 µM (inactive) and the GI50 [27] was 2.36 µM (inactive). The GI50 [28] was 1.86 µM (inactive), the GI50 [29] was 4.44 µM (inactive) and the GI50 [30] was 5.69 µM (inactive). The GI50 [31] was 6.49 µM (inactive), the GI50 [32] was 10.2 µM (inactive) and the GI50 [33] was 3.84 µM (inactive). For the same compound, the GI50 [34] was 1.33 µM (inactive), the GI50 [35] was 1.34 µM (inactive) and the GI50 [36] was 7.23 µM (inactive). The GI50 [37] was 9.12 µM (inactive), the GI50 [38] was 2.62 µM (inactive) and the GI50 [39] was 1.95 µM. For the same compound, the GI50 [40] was 9.98 µM (inactive), the GI50 [41] was > 49.7 µM (inactive) and the GI50 [42] was 5.62 µM (inactive). The GI50 [43] was 16.6 µM (inactive), the GI50 [44] was 1.21 µM (inactive) and the GI50 [45] was 1.72 µM (inactive). The GI50 [46] was 9.42 µM (inactive), the GI50 [47] was 6.68 µM (inactive) and the GI50 [48] was 5.38 µM (inactive). For the same compound, the GI50 [49] was 2.67 µM (inactive), the GI50 [50] was 10 µM (inactive) and the GI50 [51] was 9.27 µM (inactive). For the same compound, the GI50 [52] was 4.71 µM (inactive), the GI50 [53] was 1.61 µM (inactive) and the GI50 [54] was 5.97 µM (inactive). The GI50 [55] was 1.52 µM (inactive), the GI50 [56] was 14.2 µM (inactive) and the GI50 [57] was 3.19 µM (inactive). For the same compound, the GI50 [58] was 2.88 µM (inactive) and the GI50 [59] was 1.3 µM (inactive).
